Patent publication US10294202B2, “Pyrrolidinones as herbicides” (FMC Corporation, priority 2013, dated 2019)

Assays:
crabgrass, large = assay: Test C pre-/postemergence herbicide test; assay type: in vivo, Digitaria sanguinalis
Method in brief: (§1)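 Herbicidal effect was judged by eye 13 to 15 days after treatment in the greenhouse, using a 0–100 scale against controls. Chemicals in a non-phytotoxic solvent with surfactant were sprayed onto planted loam/sand soil or onto plants 2 to 18 cm tall in a peat-based growing medium.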

oilseed rape = assay: Test C pre-/postemergence herbicide test; assay type: in vivo, Brassica napus
Method in brief: as §1

ducksalad = assay: Test B flooded paddy test; assay type: in vivo, Heteranthera limosa; conditions: 500 g ai/ha, Flood; scale of 0 to 100 where 0 is no effect and 100 is complete control
Method in brief: (§2)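 Scored visually 0–100 (0 no effect, 100 complete control) versus controls after 13 to 15 greenhouse days. Treatment: compound added to paddy water kept 3 cm above soil, on 2-leaf-stage plants.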

velvetleaf = assay: Test C pre-/postemergence herbicide test; assay type: in vivo, Abutilon theophrasti
Method in brief: as §1

ryegrass, Italian = assay: Test C pre-/postemergence herbicide test; assay type: in vivo, Lolium multiflorum
Method in brief: as §1

waterhemp = assay: Test C pre-/postemergence herbicide test; assay type: in vivo, Amaranthus rudis
Method in brief: as §1

rice = assay: Test B flooded paddy test; assay type: in vivo, Oryza sativa; conditions: 500 g ai/ha, Flood; scale of 0 to 100 where 0 is no effect and 100 is complete control
Method in brief: as §2

soybean = assay: Test C pre-/postemergence herbicide test; assay type: in vivo, Glycine max
Method in brief: as §1

blackgrass = assay: Test C pre-/postemergence herbicide test; assay type: in vivo, Alopecurus myosuroides
Method in brief: as §1

barnyardgrass = assay: Test B flooded paddy test; assay type: in vivo, Echinochloa crus-galli; conditions: 500 g ai/ha, Flood; scale of 0 to 100 where 0 is no effect and 100 is complete control
Method in brief: as §2

sedge, umbrella = assay: Test B flooded paddy test; assay type: in vivo, Cyperus difformis; conditions: 500 g ai/ha, Flood; scale of 0 to 100 where 0 is no effect and 100 is complete control
Method in brief: as §2

corn = assay: Test A pre-/postemergence herbicide test; assay type: in vivo, Zea mays; conditions: Postemergence
Method in brief: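 Both application timings used compounds in a non-phytotoxic solvent plus surfactant. Pre-emergence: soil sprayed directly after seeding into loam/sand. Post-emergence: foliage of 2–10 cm seedlings (1–2 leaves) sprayed. Injury rated ~10 days later, 0–100.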

[1] = Postemergence, 31 g ai/ha, scale 0 to 100 (0 no effect, 100 complete control)
[2] = Postemergence, 62 g ai/ha, scale 0 (no effect) to 100 (complete control)
[3] = Postemergence, 125 g ai/ha, scale 0 to 100 (0 no effect, 100 complete control)
[4] = Postemergence, 250 g ai/ha, scale 0 to 100 (0 no effect, 100 complete control)
[5] = Preemergence, 31 g ai/ha, scale 0 to 100, 0 is no effect and 100 is complete control
[6] = Preemergence, 62 g ai/ha, scale 0 to 100 (0 no effect, 100 complete control)
[7] = Preemergence, 125 g ai/ha, scale 0 to 100
[8] = Preemergence, 125 g ai/ha, scale 0 to 100 (0 no effect, 100 complete control)

Compound: Cc1cccc(NC(=O)C2C(=O)NCC2c2cccc(C(F)(F)F)c2)c1 (centres unmarked) [Compound 317]
- Plant response rating, Crabgrass, Large (crabgrass, large; [1]): 0
- Plant response rating, Crabgrass, Large (crabgrass, large; [2]): 25
- Plant response rating, Crabgrass, Large (crabgrass, large; [3]): 45
- Plant response rating, Crabgrass, Large (crabgrass, large; [4]): 50
- Crabgrass, Large plant response rating (crabgrass, large; [5]): 95
- Crabgrass, Large plant response rating (crabgrass, large; [6]): 95
- Plant response rating, Crabgrass, Large (crabgrass, large; [7]): 95
- Plant response rating (scale of 0 to 100), Crabgrass, Large (crabgrass, large; Preemergence, 250 g ai/ha): 98
- Plant response rating, Oilseed Rape (oilseed rape; [1]): 0
- Plant response rating, Oilseed Rape (oilseed rape; [2]): 0
- Plant response rating, Oilseed Rape (oilseed rape; [3]): 0
- Plant response rating, Oilseed Rape (oilseed rape; [4]): 0
- Oilseed Rape plant response rating (oilseed rape; [5]): 0
- Oilseed Rape plant response rating (oilseed rape; [6]): 0
- Plant response rating, Oilseed Rape (oilseed rape; [7]): 0
- Plant response rating (scale of 0 to 100), Oilseed Rape (oilseed rape; Preemergence, 250 g ai/ha): 0
- Plant response rating, Ducksalad (ducksalad): 80
- Plant response rating, Velvetleaf (velvetleaf; [1]): 0
- Plant response rating, Velvetleaf (velvetleaf; [2]): 0
- Plant response rating, Velvetleaf (velvetleaf; [3]): 0
- Plant response rating, Velvetleaf (velvetleaf; [4]): 0
- Velvetleaf plant response rating (velvetleaf; [6]): 0
- Plant response rating, Velvetleaf (velvetleaf; [7]): 0
- Plant response rating, Ryegrass, Italian (ryegrass, Italian; [1]): 0
- Plant response rating, Ryegrass, Italian (ryegrass, Italian; [2]): 0
- Plant response rating, Ryegrass, Italian (ryegrass, Italian; [3]): 0
- Plant response rating, Ryegrass, Italian (ryegrass, Italian; [4]): 0
- Ryegrass, Italian plant response rating (ryegrass, Italian; [6]): 0
- Plant response rating, Ryegrass, Italian (ryegrass, Italian; [7]): 0
- Plant response rating, Waterhemp (waterhemp; [1]): 0
- Plant response rating, Waterhemp (waterhemp; [2]): 0
- Plant response rating, Waterhemp (waterhemp; [3]): 20
- Plant response rating, Waterhemp (waterhemp; [4]): 0
- Waterhemp plant response rating (waterhemp; [6]): 0
- Plant response rating, Waterhemp (waterhemp; [7]): 10
- Plant response rating, Rice (rice): 0
- Plant response rating, Soybean (soybean; [1]): 0
- Plant response rating, Soybean (soybean; [2]): 0
- Plant response rating, Soybean (soybean; [3]): 0
- Plant response rating, Soybean (soybean; [4]): 0
- Soybean plant response rating (soybean; [6]): 0
- Plant response rating, Soybean (soybean; [7]): 0
- Plant response rating, Blackgrass (blackgrass; [1]): 0
- Plant response rating, Blackgrass (blackgrass; [2]): 0
- Plant response rating, Blackgrass (blackgrass; [3]): 0
- Plant response rating, Blackgrass (blackgrass; [4]): 0
- Blackgrass plant response rating (blackgrass; [5]): 0
- Blackgrass plant response rating (blackgrass; [6]): 40
- Plant response rating, Blackgrass (blackgrass; [7]): 50
- Plant response rating (scale of 0 to 100), Blackgrass (blackgrass; Preemergence, 250 g ai/ha): 50
- Plant response rating, Barnyardgrass (barnyardgrass): 75
- Plant response rating, Sedge, Umbrella (sedge, umbrella): 0
- Plant response rating, Corn (corn; 125 g ai/ha, visual rating on 0 to 100 scale (0 no effect, 100 complete control), approx. 10 days): 0
- Plant response rating, Corn (corn; 500 g ai/ha, 0 to 100 scale (0 no effect, 100 complete control)): 20

Compound: O=C(Nc1ccccc1F)C1C(=S)NCC1c1cccc(C(F)(F)F)c1 (centres unmarked) [Compound 274]
- Crabgrass, Large plant response rating (crabgrass, large; [5]): 85
- Crabgrass, Large plant response rating (crabgrass, large; [6]): 90
- Plant response rating, Crabgrass, Large (crabgrass, large; [8]): 98
- Plant response rating (scale of 0 to 100), Crabgrass, Large (crabgrass, large; Preemergence, 250 g ai/ha): 100
- Oilseed Rape plant response rating (oilseed rape; [5]): 0
- Oilseed Rape plant response rating (oilseed rape; [6]): 0
- Plant response rating, Oilseed Rape (oilseed rape; [8]): 5
- Plant response rating (scale of 0 to 100), Oilseed Rape (oilseed rape; Preemergence, 250 g ai/ha): 30
- Plant response rating, Ducksalad (ducksalad): 35
- Velvetleaf plant response rating (velvetleaf; [5]): 0
- Velvetleaf plant response rating (velvetleaf; [6]): 20
- Plant response rating, Velvetleaf (velvetleaf; [8]): 20
- Plant response rating (scale of 0 to 100), Velvetleaf (velvetleaf; Preemergence, 250 g ai/ha): 20
- Ryegrass, Italian plant response rating (ryegrass, Italian; [5]): 0
- Ryegrass, Italian plant response rating (ryegrass, Italian; [6]): 0
- Plant response rating, Ryegrass, Italian (ryegrass, Italian; [8]): 5
- Plant response rating (scale of 0 to 100), Ryegrass, Italian (ryegrass, Italian; Preemergence, 250 g ai/ha): 30
- Waterhemp plant response rating (waterhemp; [5]): 0
- Waterhemp plant response rating (waterhemp; [6]): 0
- Plant response rating (scale of 0 to 100), Waterhemp (waterhemp; Preemergence, 250 g ai/ha): 0
- Plant response rating, Rice (rice): 0
- Soybean plant response rating (soybean; [5]): 0
- Soybean plant response rating (soybean; [6]): 0
- Plant response rating, Soybean (soybean; [8]): 5
- Plant response rating (scale of 0 to 100), Soybean (soybean; Preemergence, 250 g ai/ha): 0
- Blackgrass plant response rating (blackgrass; [5]): 0
- Blackgrass plant response rating (blackgrass; [6]): 70
- Plant response rating, Blackgrass (blackgrass; [8]): 75
- Plant response rating (scale of 0 to 100), Blackgrass (blackgrass; Preemergence, 250 g ai/ha): 90
- Plant response rating, Barnyardgrass (barnyardgrass): 0
- Plant response rating, Sedge, Umbrella (sedge, umbrella): 0
- Plant response rating, Corn (corn; 1000 g ai/ha, 0 to 100 scale (0 no effect, 100 complete control)): 70
